Measured values reported in patent US7585843B2, “Treatment of demyelinating autoimmune disease with modified ordered peptides” (Bayhill Therapeutics, Inc., priority 2003, dated 2009).
Entries after “also recorded” stand apart in the source; their conditions may differ. Read-outs that look alike come from different tables or passages of the source. Non-standard residues stand in square brackets, D forms with d. No end group written: not given here.

Tests used:
EAE in mice = experiment: Relapse rates in mice with ongoing EAE induced with PLPp139-151 (FIG. 2); type: in vivo; settings: PLPp139-151-induced EAE; treated days 17, 29, 36; i.v., i.p. or s.c.; 0.5 or 0.05 mg per mouse; in mannitol
Procedure: FIG. 2 is a graph depicting the reduction in relapse rates in mice with EAE treated with ordered peptides. Animals were induced for EAE with an emulsion of 0.1 mg of PLPp139-151 in complete Freund's adjuvant (day 0). Mice were randomized into equal groups at the peak of disease and were treated at days 17, 29, and 36 after EAE induction with intravenous, intra-peritoneal or subcutaneous administration of EYYKEYYKEYYK (MBP therapeutic ordered peptide) or Copaxone at two different dosages, 0.5 mg per mouse or 0.05 mg per mouse. Both the MBP therapeutic ordered peptide and Copaxone were dissolved in mannitol.
Injection of ordered peptides containing TCR-MHC binding motifs reverse the development of EAE. In order to test the potential of the predicted sequences to revert the development of ongoing EAE we delivered a single dose of a PBS solution containing 0.5 mg of peptide in 0.25 ml. […] In addition, ordered peptide treatment was administered in a mouse model of ongoing-EAE (FIG. 2) at days 17, 29, and 36 after EAE induction with intravenous, intra-peritoneal or subcutaneous administration of EYYKEYYKEYYK (therapeutic ordered peptide) or Copaxone at two different dosages, 0.5 mg per mouse or 0.05 mg per mouse. Both the therapeutic ordered peptide and Copaxone were dissolved in mannitol.

EAE in Lewis rats [1] = experiment: EAE treatment in Lewis rats, single dose at disease onset (FIG. 1); type: in vivo, rat; settings: MBPp85-99-induced EAE, single intraperitoneal dose 0.5 mg in PBS at disease onset (day 10)
Procedure: FIG. 1 is a graph showing the prevention of EAE in rats treated with therapeutic ordered peptides. […] Animals were injected with an emulsion of 0.1 mg of MBPp85-99 in complete Freund's adjuvant for EAE induction. Ten days later, when the clinical manifestations of disease became apparent, a single intra-peritoneal dose of MBP therapeutic ordered peptide {SEQ ID NO:4} EYYKEYYKEYYK (squares), {SEQ ID NO:5} KYYKYYKYYKYY (triangles), or PBS (circles)was administered. Results are expressed as mean disease score of groups of six animals.
Animals. Female Lewis rats (6-8 weeks old), were purchased from Harlan Sprague Dawley (Indianapolis, Ind.)
(§1) EAE induction. Synthetic peptide MBPp85-99 was dissolved in PBS to a concentration of 2 mg/ml and emulsified with and equal volume of Incomplete Freund's Adjuvant (IFA), supplemented with 4 mg/ml heat-killed Mycobacterium tuberculosis H37Ra (Difco Laboratories, Detroit, Mich.). Rats were injected subcutaneously with 0.1 ml of the peptide emulsion. Experimental animals were scored as follows: 0, no clinical disease; 1, tail weakness or paralysis; 2, hind limb weakness; 3, hind limb paralysis; 4, forelimb weakness or paralysis; 5, moribund or dead animal.
EAE treatment. Rats previously immunized with MBPp85-99 for EAE induction were scored from day eight after peptide injection. […]

rat MHC class II = experiment: Blocking of native peptide binding to MHC by FACS (FIG. 3), rat; settings: biotinylated peptide on spleen APCs
Procedure: (§2) The ability of MBP therapeutic ordered peptide EYYKEYYKEYYK, substituted MBP therapeutic ordered peptide D-Ala-EYYKEYYKEYYK-amide, or Copaxone to block the binding of the native peptide to either a mouse or rat MHC was measured by FACS analysis.
(§3) Peptide binding to class II molecules was measured as follows. Briefly, APCs (antigen presenting cells) were purified from spleen cells by negative selection using magnetic beads (Dynal, Oslo, Norway) conjugated with antibodies specific for T cells (CD52), macrophages (CD45R), and NK cells (NKR-P1A) (Pharmingen, San Diego, Calif.). After selection, cells were plated at a concentration of 0.5×10^6 cells per well in flat bottom 96 well microtiter plates (Costar, Corning, N.Y.). Therapeutic ordered peptides were used as inhibitors are added to the wells at different concentrations (ranging from 0.01 to 0.24 mM) in a volume of 0.05 ml. After an hour of incubation at 37° C., 0.01 mM of biotinylated MBP, MOG, or PLP peptide was added. After four more hours of incubation, cells were harvested and binding of PE-Avidin to the cell surface was analyzed by FACS (Becton Dickinson, San Jose, Calif.). To determine the IC50 value of the therapeutic ordered peptide, for example EYYK, a linear regression curve was calculated using data points from 0.01 mM to […].

mouse MHC class II = experiment: Blocking of native peptide binding to MHC by FACS (FIG. 3), mouse; settings: biotinylated peptide on spleen APCs
Procedure: as §2, §3

[2] = tested on: anti-MBP antibodies affinity-purified from CNS lesions; experiment: Inhibition of autoantibody binding to MBP; parameters: species or system human; settings: antibodies from CNS lesions of 12 post-mortem MS cases
From the text: Previously, we have compared the structural requirements for autoantibody recognition to those of T cell clones reactive to MBP p87-99. Anti-MBP antibodies were affinity-purified from CNS lesions of 12 post-mortem cases studied. The MBP p87-99 peptide was immunodominant in all cases and it inhibited autoantibody binding to MBP by more than 95%. Residues contributing to autoantibody binding were located in a 10-amino acid segment p86-95 ({SEQ ID NO:9} VVHFFKNIVT) that also contained the MHC-T cell receptor contact residues for T cells recognizing MBP in the context of DRB1*1501 and DQB1*0602. In the epitope center, the same residues, {SEQ ID NO:10} VHFFK, were important for T cell binding and MHC recognition. Recently, the crystal structure of HLA-DR2 with MBPp85-99 was solved, confirming the prediction that K91 is the major TCR contact residue, while F90 is a major anchor into the hydrophobic P4 pocket of the MHC molecule.

EAE in Lewis rats [3] = experiment: Blocking of EAE induction in Lewis rats, peptide mixed into encephalitogenic emulsion (FIG. 5); type: in vivo, rat; settings: 0.5 mg mixed into MBPp85-99/CFA emulsion, 12-13 animals
Procedure: FIG. 5 is a graph showing the blocking of induction of EAE by the substituted D-Ala form of the therapeutic ordered peptide. Lewis rats were injected with an emulsion of 0.1 mg of MBPp85-99 in complete Freund's adjuvant for EAE induction. Either of 0.5 mg MBP therapeutic ordered peptide EYYKEYYKEYYK, substituted MBP therapeutic ordered peptide D-Ala-EYYKEYYKEYYK-amide, or Copaxone was mixed into the encephalitogenic emulsion. Results are expressed as mean disease score of 12-13 animals.
as §1
The ability of therapeutic ordered peptide EYYKEYYKEYYK, modified therapeutic ordered peptide D-Ala-EYYKEYYKEYYK-amide, or Copaxone to treat a rat model of EAE was tested. A single 0.5 mg dose of each of these peptides was administered along with the encephalitogen (MBP 85-99 peptide in CFA) as an emulsion.

[4] = tested on: PLPp139-151 specific T cell line; experiment: T cell proliferation assay (FIG. 4); type: cell-based
Procedure: FIG. 4 is a graph showing the blocking by the therapeutic ordered peptide of T cell proliferation. The ability of MBP therapeutic ordered peptide (EYYKEYYKEYYK), substituted MBP therapeutic ordered peptide (D-Ala-EYYKEYYKEYYK-amide), or Copaxone to block the proliferation of a PLPp139-151 specific T cell line was measured in a proliferation assay.
The ability of therapeutic ordered peptide EYYKEYYKEYYK, modified therapeutic ordered peptide D-Ala-EYYKEYYKEYYK-amide, or Copaxone to block the proliferation of a PLPp139-151 specific T cell line was measured in a proliferation assay.

[5] = tested on: T cell lines from immunized mice; experiment: Cytokine production by T cell lines from immunized mice (FIG. 6); type: cell-based; settings: T cell lines from mice immunized with the antigen
From the text: OVA is known to cause an induction of Th1 type of T cells after immunization.
One of the mechanisms proposed for the efficacy of Copaxone in MS is the induction of Th2 type of antigen-specific T cells that are beneficial in treating the disease process.
In a similar protocol we immunized mice with D-ala modified ordered peptide, non-modified ordered peptide, and control peptides including Cop1 and ovalbumin (OVA). OVA is known to cause an induction of Th1 type of T cells after immunization.

For “EYYKEYYKEYYK [MBP therapeutic ordered peptide, motif [EYYK]n with n=3]”, the “relapse rates per mouse” value (EAE in mice) was “reduce relapse rates similarly”, the “EAE development, mean disease score” value (EAE in Lewis rats [1]) was “prevents the development of EAE; also recorded: effective in preventing and treating experimental autoimmune encephalomyelitis” and the “blocking of binding of native MBP peptide to rat MHC class II (mean fluorescence intensity)” value (rat MHC class II) was “comparable amount of inhibition”. For the same substance, the “blocking of binding of native PLP peptide to mouse MHC class II (mean fluorescence intensity)” value (mouse MHC class II) was “comparable amount of inhibition”.
With “MBP p87-99: myelin basic protein peptide 87-99, immunodominant epitope (SRPHLIRLFSRDA; UniProt P02686 87-99, looked up, fragment)” the “inhibition of autoantibody binding to MBP” value [2] was “more than 95%”.
In the case of “D-Ala-EYYKEYYKEYYK-amide ([dA]EYYKEYYKEYYK-NH2; N-terminus assumed; SMILES C[C@@H](N)C(=O)N[C@@H](CCC(=O)O)C(=O)N[C@@H](Cc1ccc(O)cc1)C(=O)N[C@@H](Cc1ccc(O)cc1)C(=O)N[C@@H](CCCCN)C(=O)N[C@@H](CCC(=O)O)C(=O)N[C@@H](Cc1ccc(O)cc1)C(=O)N[C@@H](Cc1ccc(O)cc1)C(=O)N[C@@H](CCCCN)C(=O)N[C@@H](CCC(=O)O)C(=O)N[C@@H](Cc1ccc(O)cc1)C(=O)N[C@@H](Cc1ccc(O)cc1)C(=O)N[C@@H](CCCCN)C(N)=O) [substituted (modified) MBP therapeutic ordered peptide]”, the “blocking of EAE induction, mean disease score” value (EAE in Lewis rats [3]) is reported as “more effective in blocking EAE induction than the un-substituted therapeutic ordered peptide; also recorded: superiority of the D-Ala form of the ordered peptide over the non-substituted form; also recorded: nearly reaches the efficacy of Copaxone”, the “reduction in T cell proliferation” value [4] is reported as “dose dependent reduction in T cell proliferation; also recorded: exceeds the reduction in T cell proliferation for either the unmodified ordered peptide or for Copaxone” and the “reduction in T cell proliferation” value ([4]; listed as D-Ala EYYK) is reported as “dose dependent reduction in T cell proliferation; also recorded: exceeds the reduction in proliferation with either the unmodified ordered peptide or Copaxone”. The “reduction in T cell proliferation” value ([4]; listed as D-ala EYYK) was “more effective in blocking T cell proliferation than the unmodified EYYK”, the IL4 production [5] was “increased production of IL4 and IL10” and the IL10 production [5] was “increased production of IL4 and IL10”. The “blocking of binding of native MBP peptide to rat MHC class II (mean fluorescence intensity)” value (rat MHC class II) was “more effective in blocking either MHC than the non-D-ala form”, the “blocking of binding of native MBP peptide to rat MHC class II (mean fluorescence intensity)” value (rat MHC class II; listed as D-Ala EYYK) was “higher affinity of binding to these MHC's than the unmodified EYYK; also recorded: approaches the binding achieved by Copaxone” and the “blocking of binding of native MBP peptide to rat MHC class II (mean fluorescence intensity)” value (rat MHC class II; listed as D-ala-EYYK) was “comparable amount of inhibition”. The “blocking of binding of native PLP peptide to mouse MHC class II (mean fluorescence intensity)” value (mouse MHC class II) was “more effective in blocking either MHC than the non-D-ala form”, the “blocking of binding of native PLP peptide to mouse MHC class II (mean fluorescence intensity)” value (mouse MHC class II; listed as D-Ala EYYK) was “higher affinity of binding to these MHC's than the unmodified EYYK; also recorded: approaches the binding achieved by Copaxone” and the “blocking of binding of native PLP peptide to mouse MHC class II (mean fluorescence intensity)” value (mouse MHC class II; listed as D-ala-EYYK) was “comparable amount of inhibition”.
With “OVA: ovalbumin, control known to cause an induction of Th1 type of T cells after immunization [reference compound]” the IL4 production [5] was “did not cause an increase in these cytokines” and the IL10 production [5] was “did not cause an increase in these cytokines”.
